Results taken from US12103969B2, “Anti-Siglec antibody, pharmaceutical composition comprising the same, and uses thereof” (Academia Sinica, priority 2018, dated 2024).
Read-outs that look alike come from different tables or passages of the source.

Legend:
[1] = molecular target: T1, hHBV and Siglec-3 interaction (Homo sapiens, UniProt P20138); test: Competition assay of hHBV and Siglec-3 interaction by sialoglycan; type: binding
T1 construct: human Siglec-3/-7 extracellular domain (ECD); made in house; host or cells: FreeStyle 293 Expression System (Invitrogen); HBsAg/HBV purified from CHB patients' blood
T1 sequence (P20138 18-259 limits assumed): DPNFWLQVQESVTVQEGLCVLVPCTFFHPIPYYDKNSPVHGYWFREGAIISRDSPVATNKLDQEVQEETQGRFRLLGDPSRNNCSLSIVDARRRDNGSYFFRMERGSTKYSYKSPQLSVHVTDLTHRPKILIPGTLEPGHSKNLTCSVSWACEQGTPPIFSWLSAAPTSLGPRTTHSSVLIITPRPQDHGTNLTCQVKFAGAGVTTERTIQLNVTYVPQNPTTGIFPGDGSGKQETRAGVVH
Experimental: (§1) Sialidase S and sialidase C were used to remove sialoglycan from HBV or sialoglycans, respectively. Sialidase S releases only α(2-3)-linked Neu5Ac, while Sialidase C release both α(2-3) and α(2-6)-linked Neu5Ac. The sialidase-treated substrates were used for HBV-Siglec-3 binding assay and competition assay.
Siglec ECD.Fc fusion proteins (5 μg) were coated on microtitre plates, followed by addition of HBsAg (100 ng) in the presence various concentrations of following glycans: Neu5Ac(α2-6)-Gal-GlcNAc, Neu5Ac(α2-3)-Gal-GlcNAc, and Gal-GlcNAc at 4° C. for 12 hours with Protein free blocking buffer. The sialidase-treated and un-treated sialyglycans were used for competition assay.

Siglec-3.Fc = molecular target: T2, Siglec-3.Fc (Homo sapiens, UniProt P20138); test: Bio-layer interferometry: Siglec-3.Fc and Neu5Ac(α2-6)GalGlcNAc glycans; type: binding
T2 construct: human Siglec-3/-7 extracellular domain (ECD); made in house; host or cells: FreeStyle 293 Expression System (Invitrogen)
T2 sequence (P20138 18-259 limits assumed): as above
Experimental: (§2) The interaction between human Siglec.Fc fusion protein and HBV was determined by the Bio-layer interferometry. In brief, the biosensor was immobilized with the Siglec.Fc fusion protein, and the binding between the Siglec.Fc and HBV was performed with running buffer (10 mM Tris HCl, 150 mM NaCl, 2 mM CaCl2, 2 mM MgCl2, pH 7.4) at room temperature. The valence between HBV and human Siglec-3 was determined, which correlates the strength of multivalent association with that of monovalent association as shown in the following: • KA, surf=F (S×10^−2)^n−1×(KA, mono)^n, where KA, surf is thereciprocal of KD (HBV and Siglec-3), KA, mono is the reciprocal of KD (Biantennary a2-6 linked sialylglycopeptide and Siglec-3); n is the number of valency number; F is the statistic factor in the system and S is equal to 40(Å), which is estimated according to crystal structure of Siglec-3 published on RCSB protein data bank (Number: 5J0B). Three individual BLI results were used to calculate out the n (number of valency). Generation and Characterization of Anti-Siglec mAbs and Selection of Antagonistic Antibody

hHBV [2] = test: Bio-layer interferometry: immobilized Fc-lectin and hHBV; type: binding, hepatitis B virus
Description: (§3) HBV was purified from blood samples of chronic hepatitis B (CHB) patients and HBV-transgenic mice, respectively. The protocol for HBV was purified by conventional method. HBV viral load was determinate by RT-PCR according to a standard HBV plasmid. HBsAg level was quantified by the HBsAg ELISA kit.
as §1, §2

mHBV = test: Bio-layer interferometry: immobilized Fc-lectin and mHBV; type: binding, hepatitis B virus; conditions: BLI, same condition as hHBV
Experimental: as §3, §2

hHBV [3] = test: Immunoprecipitation of hHBV by Siglec ECD.Fc fusion proteins; type: binding, hepatitis B virus; conditions: Western blot with anti-HBs
Experimental: HBV ([…]) was incubated with recombinant Siglec-3/-7/-9 ECD.Fc fusion proteins, respectively, for 16 hours at 4° C., followed by incubation with Sepharose-conjugated Protein A beads for immunoprecipitation. The samples were fractionated on 12% SDS-PAGE before blotting to PVDF membrane and incubated in blocking buffer (0.05% Tween 20 in TBS containing 5% BSA) at 4° C. overnight. Blots were incubated with […] polyclonal goat-anti-HBs Ab for 1 hour at room temperature, followed by incubation with Streptavidin-HRP (1:10000 dilution) for another 1 hour at room temperature, and were visualized by ECL.

[4] = untreated glycan, various concentrations

With Neu5Ac(α2-6)GalGlcNAc the “inhibition of Siglec-3-HBV interaction” value ([1]; Sialidase C-treated glycan) was “lost its inhibitory effect”, the “inhibition of Siglec-3-HBV interaction” value [1, 4] was “inhibited Siglec-3-HBV interaction in a dose-dependent manner” and the “Ka” value (Siglec-3.Fc; immobilized Siglec-3, cell wraps: value is the mantissa, factor × 10^0 printed in the lines below) was 5.44 M⁻¹ s⁻¹. The “Kd” value (Siglec-3.Fc; immobilized Siglec-3, cell wraps: value is the mantissa, factor × 10^−3 printed in the lines below) was 6.02 s⁻¹ and the Kd (Siglec-3.Fc; recombinant Siglec-3.Fc (dimeric), full value, unit from Table 1, read-out: equilibrium dissociation constant (KD)) was 1590 µM.
Neu5Ac(α2-3)GalGlcNAc was tested, and the “inhibition of Siglec-3-HBV interaction” value [1, 4] was “did not inhibit Siglec-3-HBV interaction”.
“Siglec-3: recombinant human Siglec-3 extracellular domain (ECD).Fc fusion protein” was tested, and the “Ka” value (hHBV [2]; hHBV Sialidase S treated, cell wraps: value is the mantissa, factor × 10^5 printed in the lines below) was 7.11 M⁻¹ s⁻¹, the “Kd” value (hHBV [2]; hHBV Sialidase S treated, cell wraps: value is the mantissa, factor × 10^−4 printed in the lines below) was 2.73 s⁻¹ and the “Ka” value (hHBV [2]; hHBV Untreat, cell wraps: value is the mantissa, factor × 10^6 printed in the lines below) was 1.18 M⁻¹ s⁻¹. The “Kd” value (hHBV [2]; hHBV Untreat, cell wraps: value is the mantissa, factor × 10^−4 printed in the lines below) was 6.97 s⁻¹, the Kd (hHBV [2]; hHBV virions, full value, unit from Table 2, read-out: KD) was 0.000115 µM and the “Ka” value (hHBV [2]; hHBV, cell wraps: value is the mantissa, factor × 10^6 printed in the line below) was 3.11 M⁻¹ s⁻¹. For the same substance, the “Kd” value (hHBV [2]; hHBV, cell wraps: value is the mantissa, factor × 10^−4 printed in the line below) was 3.58 s⁻¹, the “binding between Siglec-3 and hHBV” value (hHBV [2]; α2-6 linked Neu5Ac removed from hHBV by sialidase C) was “abolished the binding” and the “binding to mHBV virions” value (mHBV) was “did not bind”. The “pull down of hHBV HBsAg (immunoprecipitation)” value (hHBV [3]) was “mainly pulled down glycosylated small HBsAg(h)”.
With “Siglec-9: recombinant Siglec-9 ECD.Fc fusion protein” the “binding to hHBV” value (hHBV [2]; hHBV, BLI, same condition as Siglec-3) was “did not bind” and the “pull down of hHBV HBsAg (immunoprecipitation)” value (hHBV [3]) was “cannot pull down”.
GalGlcNAc was tested, and the “inhibition of Siglec-3-HBV interaction” value [1, 4] was “did not inhibit Siglec-3-HBV interaction”.
